This note sets out measurements from PubChem BioAssay AID226 (DTP/NCI, 2004).

Several values for one entry are separate records, joined by “and”; a condition that tells them apart may be missing. Equal values may be shown once. Toxic doses and inconclusive results are not listed.

This assay has as its system B6C3F1 mice, intracerebral ependymoblastoma, median survival T/C. The assay can be described thus: NCI In Vivo Anticancer Drug Screen. Data for tumor model Ependymoblastoma (intracerebral) in B6C3F1 mice. The note with it: endpoint: median survival time, higher = longer survival. As for the experimental part: The antitumor activity of compounds was measured in mice bearing transplantable tumors. Survival or tumor size were measured and the results are expressed as the measurement made in the treated group (T) divided by the measurement made in the vehicle treated control group (C). The tumor model used in this assay is Ependymoblastoma (intracerebral) in B6C3F1 mice

Setting [1] is: dose: 2.0 mg/kg/injection, schedule: Q01DX005 (ip), vehicle: saline.
Setting [2] is: dose: 4.0 mg/kg/injection, schedule: Q01DX005 (ip), vehicle: saline.
Setting [3] is: dose: 8.0 mg/kg/injection, schedule: Q01DX005 (ip), vehicle: saline.
Where [4] appears, read: dose: 16.0 mg/kg/injection, schedule: Q01DX005 (ip), vehicle: saline.
The mark [5] stands for this setting: dose: 32.0 mg/kg/injection, schedule: Q01DX005 (ip), vehicle: saline.

As for `CNNCc1ccc(C(=O)NC(C)C)cc1`, the T/C was 156 % of control (dose: 32.0 mg/kg/injection, schedule: Q01DX005 (ip), vehicle: Klucel (hydroxypropylcellulose) (HPC)) and 155 % of control (dose: 64.0 mg/kg/injection, schedule: Q01DX005 (ip), vehicle: Klucel (hydroxypropylcellulose) (HPC)).

`O=C(NCCCl)NCCCl`: the T/C is 102 % of control and 105 % of control (dose: 6.25 mg/kg/injection, schedule: Q01DX005 (ip), vehicle: Klucel (hydroxypropylcellulose) (HPC)); 102 % of control and 104 % of control (dose: 12.5 mg/kg/injection, schedule: Q01DX005 (ip), vehicle: Klucel (hydroxypropylcellulose) (HPC)); 93 % of control and 99 % of control (dose: 25.0 mg/kg/injection, schedule: Q01DX005 (ip), vehicle: Klucel (hydroxypropylcellulose) (HPC)); 92 % of control and 103 % of control (dose: 50.0 mg/kg/injection, schedule: Q01DX005 (ip), vehicle: Klucel (hydroxypropylcellulose) (HPC)); 98 % of control and 107 % of control (dose: 100.0 mg/kg/injection, schedule: Q01DX005 (ip), vehicle: Klucel (hydroxypropylcellulose) (HPC)); 96 % of control and 107 % of control (dose: 200.0 mg/kg/injection, schedule: Q01DX005 (ip), vehicle: Klucel (hydroxypropylcellulose) (HPC)). For the same compound, the T/C (dose: 400.0 mg/kg/injection, schedule: Q01DX005 (ip), vehicle: Klucel (hydroxypropylcellulose) (HPC)) is 108 % of control and 87 % of control.

As to `COC1OC(CNC(=O)N(CCCl)N=O)C(O)C(O)C1O` (stereo not drawn), the T/C runs as follows: (dose: 0.5 mg/kg/injection, schedule: Q01DX001 (ip), vehicle: saline) 103 % of control and 119 % of control; (dose: 1.0 mg/kg/injection, schedule: Q01DX001 (ip), vehicle: saline) 109 % of control and 86 % of control; (dose: 2.0 mg/kg/injection, schedule: Q01DX001 (ip), vehicle: saline) 99 % of control and 103 % of control; (dose: 4.0 mg/kg/injection, schedule: Q01DX001 (ip), vehicle: saline) 105 % of control and 109 % of control; (dose: 8.0 mg/kg/injection, schedule: Q01DX001 (ip), vehicle: saline) 103 % of control and 111 % of control; (dose: 16.0 mg/kg/injection, schedule: Q01DX001 (ip), vehicle: saline) 119 % of control.

For `N[C@H](C(=O)O)[C@@H]1CC(Cl)=NO1`, the T/C is, setting by setting: (dose: 1.0 mg/kg/injection, schedule: Q01DX005 (ip), vehicle: saline + Tween-80 + alcohol) 112 % of control; (dose: 2.0 mg/kg/injection, schedule: Q01DX005 (ip), vehicle: saline + Tween-80 + alcohol) 106 % of control; under setting [1], 97 % of control and 111 % of control; (dose: 4.0 mg/kg/injection, schedule: Q01DX005 (ip), vehicle: saline + Tween-80 + alcohol) 114 % of control; under setting [2], 104 % of control and 121 % of control; (dose: 8.0 mg/kg/injection, schedule: Q01DX005 (ip), vehicle: saline + Tween-80 + alcohol) 118 % of control. Moreover, the T/C is, setting by setting: under setting [3], 111 % of control and 117 % of control; (dose: 16.0 mg/kg/injection, schedule: Q01DX005 (ip), vehicle: saline + Tween-80 + alcohol) 89 % of control; under setting [4], 109 % of control and 124 % of control; under setting [5], 111 % of control.

For the compound `COc1ccc2c(c1O)-c1cccc3c1[C@@H](C2)N(CCCl)CC3`, the T/C by setting is: (dose: 0.25 mg/kg/injection, schedule: Q01DX005 (ip), vehicle: saline) 105 % of control; (dose: 0.5 mg/kg/injection, schedule: Q01DX005 (ip), vehicle: saline) 100 % of control; (dose: 1.0 mg/kg/injection, schedule: Q01DX005 (ip), vehicle: saline) 96 % of control; under setting [1], 99 % of control and 87 % of control; (dose: 4.0 mg/kg/injection, schedule: Q01DX005 (ip), vehicle: Klucel (hydroxypropylcellulose) (HPC)) 98 % of control; under setting [2], 104 % of control. Further, the T/C was 98 % of control (dose: 8.0 mg/kg/injection, schedule: Q01DX005 (ip), vehicle: Klucel (hydroxypropylcellulose) (HPC)); 93 % of control under setting [3]; 88 % of control under setting [4]; 86 % of control under setting [5].

As for `COC1OC(CNC(=O)N(C)N=O)C(O)C(O)C1O` (stereo not drawn), the T/C is, setting by setting: (dose: 25.0 mg/kg/injection, schedule: Q01DX005 (ip), vehicle: saline) 124 % of control; (dose: 50.0 mg/kg/injection, schedule: Q01DX005 (ip), vehicle: saline) 121 % of control; (dose: 400.0 mg/kg/injection, schedule: Q01DX005 (ip), vehicle: saline) 164 % of control.

With `N=c1ccn2c(n1)OC1C(O)C(CO)OC12` (stereo not drawn), the T/C (dose: 37.5 mg/kg/injection, schedule: Q01DX005 (ip), vehicle: saline) is 118 % of control; the T/C (dose: 75.0 mg/kg/injection, schedule: Q01DX005 (ip), vehicle: saline) was 104 % of control; the T/C (dose: 100.0 mg/kg/injection, schedule: Q01DX001 (ip), vehicle: saline) was 92 % of control and 94 % of control and 109 % of control; the T/C (dose: 150.0 mg/kg/injection, schedule: Q01DX005 (ip), vehicle: saline) was 115 % of control; the T/C (dose: 200.0 mg/kg/injection, schedule: Q01DX001 (ip), vehicle: saline) was 100 % of control (2×) and 101 % of control; the T/C (dose: 400.0 mg/kg/injection, schedule: Q01DX001 (ip), vehicle: saline) was 95 % of control and 98 % of control and 112 % of control. Besides, the T/C (dose: 800.0 mg/kg/injection, schedule: Q01DX001 (ip), vehicle: saline) is 106 % of control and 112 % of control and 123 % of control; the T/C (dose: 1600.0 mg/kg/injection, schedule: Q01DX001 (ip), vehicle: saline) is 99 % of control and 105 % of control and 115 % of control.

For the compound `CCCCC(=O)OCC1OC(n2cnc3c(=S)nc[nH]c32)C(OC(=O)CCCC)C1OC(=O)CCCC` (stereo not drawn), the T/C was 116 % of control (dose: 25.0 mg/kg/injection, schedule: Q01DX005 (ip), vehicle: saline with Tween-80); 99 % of control (dose: 50.0 mg/kg/injection, schedule: Q01DX005 (ip), vehicle: saline with Tween-80); 103 % of control (dose: 100.0 mg/kg/injection, schedule: Q01DX005 (ip), vehicle: saline with Tween-80).

As for `O=NN(CCF)C(=O)NC1CCCCC1`, the T/C reads like this: (dose: 5.1 mg/kg/injection, schedule: Q01DX001 (ip), vehicle: other) 106 % of control; (dose: 5.18 mg/kg/injection, schedule: Q01DX005 (ip), vehicle: Klucel (hydroxypropylcellulose) (HPC)) 184 % of control; (dose: 8.64 mg/kg/injection, schedule: Q01DX005 (ip), vehicle: Klucel (hydroxypropylcellulose) (HPC)) 357 % of control; (dose: 10.2 mg/kg/injection, schedule: Q01DX001 (ip), vehicle: other) 123 % of control; (dose: 13.0 mg/kg/injection, schedule: Q01DX001 (ip), vehicle: Klucel (hydroxypropylcellulose) (HPC)) 153 % of control; (dose: 14.4 mg/kg/injection, schedule: Q01DX005 (ip), vehicle: Klucel (hydroxypropylcellulose) (HPC)) 357 % of control. The T/C is, setting by setting: (dose: 20.4 mg/kg/injection, schedule: Q01DX001 (ip), vehicle: other) 160 % of control; (dose: 21.6 mg/kg/injection, schedule: Q01DX001 (ip), vehicle: Klucel (hydroxypropylcellulose) (HPC)) 216 % of control; (dose: 24.0 mg/kg/injection, schedule: Q01DX005 (ip), vehicle: Klucel (hydroxypropylcellulose) (HPC)) 357 % of control; (dose: 36.0 mg/kg/injection, schedule: Q01DX001 (ip), vehicle: Klucel (hydroxypropylcellulose) (HPC)) 363 % of control; (dose: 40.7 mg/kg/injection, schedule: Q01DX001 (ip), vehicle: other) 220 % of control; (dose: 60.0 mg/kg/injection, schedule: Q01DX001 (ip), vehicle: Klucel (hydroxypropylcellulose) (HPC)) 363 % of control. The T/C (dose: 81.4 mg/kg/injection, schedule: Q01DX001 (ip), vehicle: other) was 331 % of control and the T/C (dose: 100.0 mg/kg/injection, schedule: Q01DX001 (ip), vehicle: Klucel (hydroxypropylcellulose) (HPC)) is 333 % of control.

As for `CNc1nc(N(C)C)nc(N(C)C)n1`, the T/C by setting is: under setting [4], 98 % of control and 111 % of control; under setting [5], 101 % of control; (dose: 64.0 mg/kg/injection, schedule: Q01DX005 (ip), vehicle: saline) 104 % of control and 115 % of control; (dose: 128.0 mg/kg/injection, schedule: Q01DX005 (ip), vehicle: saline) 96 % of control and 111 % of control.

As to `CCC(=O)O[C@H]1CC[C@H]2[C@@H]3[C@@H](C)CC4=CC(=O)CC[C@]4(C)[C@H]3CC[C@]12C`, the T/C was 99 % of control and 106 % of control (dose: 32.0 mg/kg/injection, schedule: Q01DX005 (ip), vehicle: saline with Tween-80); 97 % of control and 106 % of control (dose: 64.0 mg/kg/injection, schedule: Q01DX005 (ip), vehicle: saline with Tween-80); 97 % of control and 101 % of control (dose: 128.0 mg/kg/injection, schedule: Q01DX005 (ip), vehicle: saline with Tween-80); 101 % of control and 89 % of control (dose: 256.0 mg/kg/injection, schedule: Q01DX005 (ip), vehicle: saline with Tween-80); 93 % of control and 100 % of control (dose: 512.0 mg/kg/injection, schedule: Q01DX005 (ip), vehicle: saline with Tween-80); 94 % of control (dose: 768.0 mg/kg/injection, schedule: Q01DX005 (ip), vehicle: saline with Tween-80).
